# Measurements reported in ChEMBL document CHEMBL1137300, “Identification of the brominated flame retardant 1,2-dibromo-4-(1,2-dibromoethyl)cyclohexane as an androgen agonist” (J Med Chem, 2006).
# pIC50: −log10 of the molar value.
# Key:
# Androgen receptor [1] = molecular target: T1, Androgen receptor (Homo sapiens, UniProt P10275); assay: Activity against human androgen receptor expressed in HepG2 cells assessed as luciferase reporter gene activation
# T1 sequence (P10275 whole entry): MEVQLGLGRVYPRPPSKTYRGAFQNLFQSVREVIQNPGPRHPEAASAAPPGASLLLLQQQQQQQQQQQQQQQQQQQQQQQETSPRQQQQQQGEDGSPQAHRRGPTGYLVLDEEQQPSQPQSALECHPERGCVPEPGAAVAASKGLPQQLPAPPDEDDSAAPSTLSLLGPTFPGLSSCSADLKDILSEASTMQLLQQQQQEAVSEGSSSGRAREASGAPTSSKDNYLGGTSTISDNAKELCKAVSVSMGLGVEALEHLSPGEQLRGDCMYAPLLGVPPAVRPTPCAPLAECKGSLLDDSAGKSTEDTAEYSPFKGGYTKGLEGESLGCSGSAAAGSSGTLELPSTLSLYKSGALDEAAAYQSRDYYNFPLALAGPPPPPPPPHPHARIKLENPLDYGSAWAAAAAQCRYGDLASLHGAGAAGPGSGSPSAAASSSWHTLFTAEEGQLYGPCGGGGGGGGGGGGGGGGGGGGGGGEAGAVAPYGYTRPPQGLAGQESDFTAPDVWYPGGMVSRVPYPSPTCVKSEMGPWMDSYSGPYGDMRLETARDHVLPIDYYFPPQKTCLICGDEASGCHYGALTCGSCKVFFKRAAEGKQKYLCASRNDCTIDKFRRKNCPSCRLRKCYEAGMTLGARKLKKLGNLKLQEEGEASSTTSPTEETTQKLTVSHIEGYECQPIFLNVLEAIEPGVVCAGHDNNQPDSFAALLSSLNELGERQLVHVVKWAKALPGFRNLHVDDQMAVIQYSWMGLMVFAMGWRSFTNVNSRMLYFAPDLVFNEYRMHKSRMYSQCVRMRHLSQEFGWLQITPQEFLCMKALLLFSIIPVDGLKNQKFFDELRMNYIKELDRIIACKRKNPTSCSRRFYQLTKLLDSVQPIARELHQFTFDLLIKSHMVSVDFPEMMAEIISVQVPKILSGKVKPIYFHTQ
# Androgen receptor [2] = molecular target: T2, Androgen receptor (Rattus norvegicus, UniProt P15207); assay: Displacement of androgen fluormone from rat androgen receptor
# T2 sequence (P15207 whole entry): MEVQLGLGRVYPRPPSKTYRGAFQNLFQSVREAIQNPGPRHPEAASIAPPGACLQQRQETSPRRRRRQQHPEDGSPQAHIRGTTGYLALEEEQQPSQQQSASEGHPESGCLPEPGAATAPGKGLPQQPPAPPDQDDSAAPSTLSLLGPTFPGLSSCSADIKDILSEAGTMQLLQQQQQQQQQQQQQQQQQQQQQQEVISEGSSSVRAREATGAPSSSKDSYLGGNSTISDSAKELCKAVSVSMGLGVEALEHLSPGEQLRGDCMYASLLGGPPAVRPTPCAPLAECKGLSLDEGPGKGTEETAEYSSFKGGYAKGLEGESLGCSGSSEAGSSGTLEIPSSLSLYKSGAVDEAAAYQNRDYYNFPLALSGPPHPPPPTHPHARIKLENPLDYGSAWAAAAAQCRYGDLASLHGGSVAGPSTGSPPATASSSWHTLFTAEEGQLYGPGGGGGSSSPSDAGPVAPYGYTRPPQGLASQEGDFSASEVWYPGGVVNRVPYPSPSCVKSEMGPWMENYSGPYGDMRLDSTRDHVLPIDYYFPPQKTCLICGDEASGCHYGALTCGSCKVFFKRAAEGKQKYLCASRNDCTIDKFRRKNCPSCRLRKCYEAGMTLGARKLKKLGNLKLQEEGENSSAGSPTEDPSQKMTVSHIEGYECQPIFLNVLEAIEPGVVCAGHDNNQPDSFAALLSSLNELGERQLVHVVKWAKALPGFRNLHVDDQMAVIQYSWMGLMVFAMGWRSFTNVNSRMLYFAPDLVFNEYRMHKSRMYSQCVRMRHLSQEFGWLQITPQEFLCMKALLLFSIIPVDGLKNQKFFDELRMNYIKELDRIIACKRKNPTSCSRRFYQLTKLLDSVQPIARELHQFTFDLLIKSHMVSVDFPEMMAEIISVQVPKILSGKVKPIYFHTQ
compound,measurement,setting,value
BrCC(Br)C1CCC(Br)C(Br)C1 (configuration not stated),pIC50,Androgen receptor [1],7.37
same,pIC50,Androgen receptor [2],6.79
